# Results taken from PMC3565832 (mBio, 2013).
# Test system: HSV-1
# Assay: HSV-1 IE gene expression in HeLa cells
# Format: cell-based
# Conditions: 50 µM, 5 h pretreatment, HSV-1 0.1 PFU/cell for 2 h
smiles,measurement,value
"C[C@H](NCc1ccc(OCc2cccc(F)c2)cc1)C(N)=O [Safinamide, safinamide]",inhibition of expression of viral IE (ICP27 and ICP4) genes,did not show substantial inhibition
